Test results as given in patent publication US7488712B2, “Histone deacetylase inhibitors and methods for producing the same” (Kyushu Institute of Technology, priority 2002, dated 2009).
Read-outs that look alike come from different tables or passages of the source. Where a SMILES comes first, the peptide text is derived from it. [ ]: non-standard residue; d: D form. Gly((CH2)5SH) = N[C@@H](CCCCCS)C(=O)O

Experiments:
[1] = amide bond, 12-membered ring, HATU/DIEA, DMF
[2] = test system: human uterine cancer cells (HeLa); assay: in vitro; settings: 48 h
Protocol: (§1) Human normal lung cells (TIG-3) and human uterine cancer cells (HeLa) were used to test SCOP cytotoxicity. These TIG-3 and HeLa cells were cultured in a DMEM medium comprising 10% FBS at 37° C. in the presence of 5% carbon dioxide in a steam-saturated incubator. The TIG-3 and HeLa cells were plated in 100 μl/well of the above-described medium on a 96-well microtiter plate, at a density of 30,000 cells/well and 10,000 cells/well respectively. This was then cultured for 18 hours. Test compound solution diluted with medium was added to each well and culture was continued for another 48 hours.
(§2) 30 μl of supernatant from each well was transferred to another 96-well microtiter plate (A), and the remaining supernatant was discarded. 100 μl of 0.5% Triton-X/PBS was added to each well to lyse the cells, and 30 μl was then transferred to each respective well of another 96-well microtiter plate (B). 30 μl of LDH-Cytotoxic Test (Wako) substrate solution was added to each well of these 96-well microtiter plates A and B, causing a color reaction. Once the color reaction was sufficiently progressed, it was stopped by adding 60 μl of a quenching solution. Color intensity was measured at OD560 nm using a microplate reader (Softmax). [A/(A+B)] was calculated as the free-LDH ratio. […] The higher the activity value for cancer-cell-selective cell damage (LD50 for normal cells/LD50 for cancer cells), the more that cancer-cell-selective apoptosis was induced.

[3] = in vitro; settings: human, Cancer-Cell-Selective Cytotoxicity
Protocol: as §1, §2

[4] = Cytotoxicity test (free-LDH ratio), TIG-3; assay type: cell-based; settings: human, TIG-3 human normal lung cells
Protocol: This was then cultured for 18 hours.

[5] = target: T1, mouse HDAC6 (Mus musculus, UniProt Q9Z2V5); assay: In vitro HDAC inhibition activity, [3H]-acetylated histone substrate, HDAC6; assay type: biochemical
T1 construct: HA; made in house; host or cells: 293T cells (transient transfection, anti-HA immunoprecipitation, HA peptide elution)
T1 sequence (Q9Z2V5 1-1149): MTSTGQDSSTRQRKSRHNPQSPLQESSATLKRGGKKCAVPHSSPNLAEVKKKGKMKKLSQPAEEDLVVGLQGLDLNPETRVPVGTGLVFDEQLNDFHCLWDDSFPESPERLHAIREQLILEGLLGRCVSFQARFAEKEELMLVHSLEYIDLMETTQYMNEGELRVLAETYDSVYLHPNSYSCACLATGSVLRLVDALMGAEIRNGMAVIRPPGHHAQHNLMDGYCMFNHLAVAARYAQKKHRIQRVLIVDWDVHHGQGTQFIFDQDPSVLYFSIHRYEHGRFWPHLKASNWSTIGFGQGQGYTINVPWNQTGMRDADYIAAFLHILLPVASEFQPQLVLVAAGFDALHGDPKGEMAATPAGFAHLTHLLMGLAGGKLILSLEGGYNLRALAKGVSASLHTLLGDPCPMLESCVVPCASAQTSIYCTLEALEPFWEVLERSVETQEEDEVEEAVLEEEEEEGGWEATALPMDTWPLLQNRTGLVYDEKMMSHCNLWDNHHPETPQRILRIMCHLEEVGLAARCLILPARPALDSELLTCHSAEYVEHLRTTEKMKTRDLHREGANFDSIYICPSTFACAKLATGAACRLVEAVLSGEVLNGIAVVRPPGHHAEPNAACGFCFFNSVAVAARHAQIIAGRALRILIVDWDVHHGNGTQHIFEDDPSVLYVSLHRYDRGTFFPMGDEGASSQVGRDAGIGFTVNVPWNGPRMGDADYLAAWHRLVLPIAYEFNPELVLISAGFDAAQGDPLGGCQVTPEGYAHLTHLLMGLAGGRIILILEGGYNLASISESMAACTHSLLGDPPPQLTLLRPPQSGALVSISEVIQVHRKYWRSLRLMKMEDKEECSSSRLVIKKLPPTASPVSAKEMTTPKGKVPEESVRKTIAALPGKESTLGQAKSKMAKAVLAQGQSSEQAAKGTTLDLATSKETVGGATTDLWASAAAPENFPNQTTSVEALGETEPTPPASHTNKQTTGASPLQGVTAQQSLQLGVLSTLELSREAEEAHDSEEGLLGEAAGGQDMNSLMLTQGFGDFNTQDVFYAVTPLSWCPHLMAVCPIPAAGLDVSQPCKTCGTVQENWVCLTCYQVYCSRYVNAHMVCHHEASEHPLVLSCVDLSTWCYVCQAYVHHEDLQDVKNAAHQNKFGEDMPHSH
Protocol: (§3) To measure HDAC inhibition activity, an HDAC solution was prepared as described below. 1×10^7 of 293T cells were plated on to a 100-mm dish and, after 24 hours, transfected with vectors (1 μg) expressing human HDAC1 and HDAC4 or mouse HDAC6, using LipofectAmine 2000 reagent (Life Technologies, Inc. Gaithersburg, Md.). […] The vectors were introduced for five hours in OPTI-MEM. The medium was then replaced with Dulbecco's modified Eagle's medium (DMEM), and incubated for 19 hours. The cells were washed with PBS, suspended in lysis buffer (50 mM Tris-HCl (pH7.5), 120 mM NaCl, 5 mM EDTA, and 0.5% Nonidet P-40), and sonicated. The supernatant was collected by centrifugation and nonspecific protein was removed using Protein A/G plus agarose beads (Santa Cruz Biotechnologies, Inc.). Anti-FLAG M2 antibodies (Sigma-Aldrich, Inc.) were added to the supernatant of cells expressing HDAC1 or HDAC4. Anti-HA antibodies (clone 3F10, Roche Molecular Biochemicals) were added to the supernatant of cells expressing HDAC6. Reaction in the respective mixtures was carried out at 4° C. for one hour. The resulting reaction mixtures were independently mixed with agarose beads and further reacted at 4° C. for one hour. The agarose beads were washed three times with lysis buffer and then washed once with HD buffer (20 mM Tris-HCl (pH8.0), 150 mM NaCl, 10% glycerol, and a complete protease inhibitor cocktail (Boehringer Mannheim, Germany)). […] The HDAC reaction solution was used for determining HDAC inhibition activity as shown below.
(§4) In vitro HDAC inhibition activity was evaluated as follows: A test compound was dissolved in DMSO and adjusted to 10 mM. This was used as an inhibitor stock solution. […] These reactions were stopped by adding 10 μl HCl. The [^3H] acetic acid excised by the enzyme reaction was extracted with ethyl acetate and subjected to radioactive dose measurement. As a negative control, the same procedure was carried out in which no inhibitor was added to the reaction system. The inhibition activity was expressed as a 50% inhibition concentration (“IC50 (nM)”) of the HDAC activity in the negative control (Tables 1 to 4).

[6] = target: T2, human HDAC4 (Homo sapiens, UniProt P56524); assay: In vitro HDAC inhibition activity, [3H]-acetylated histone substrate, HDAC4; assay type: biochemical
T2 construct: FLAG; made in house; host or cells: 293T cells (transient transfection, anti-FLAG immunoprecipitation, FLAG peptide elution)
T2 sequence (O15379 whole entry partner): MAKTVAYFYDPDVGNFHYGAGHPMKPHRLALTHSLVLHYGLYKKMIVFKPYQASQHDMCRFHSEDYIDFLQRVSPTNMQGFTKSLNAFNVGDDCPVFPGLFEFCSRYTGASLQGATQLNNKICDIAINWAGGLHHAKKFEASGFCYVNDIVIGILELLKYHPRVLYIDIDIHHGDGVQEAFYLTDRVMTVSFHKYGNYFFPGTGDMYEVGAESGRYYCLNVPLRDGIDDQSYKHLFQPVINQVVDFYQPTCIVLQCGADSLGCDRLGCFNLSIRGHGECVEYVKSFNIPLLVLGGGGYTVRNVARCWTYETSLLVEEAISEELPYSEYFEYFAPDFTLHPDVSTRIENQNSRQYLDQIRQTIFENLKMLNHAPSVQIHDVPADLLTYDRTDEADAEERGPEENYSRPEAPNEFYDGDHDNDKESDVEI
T2 sequence (P56524 whole entry): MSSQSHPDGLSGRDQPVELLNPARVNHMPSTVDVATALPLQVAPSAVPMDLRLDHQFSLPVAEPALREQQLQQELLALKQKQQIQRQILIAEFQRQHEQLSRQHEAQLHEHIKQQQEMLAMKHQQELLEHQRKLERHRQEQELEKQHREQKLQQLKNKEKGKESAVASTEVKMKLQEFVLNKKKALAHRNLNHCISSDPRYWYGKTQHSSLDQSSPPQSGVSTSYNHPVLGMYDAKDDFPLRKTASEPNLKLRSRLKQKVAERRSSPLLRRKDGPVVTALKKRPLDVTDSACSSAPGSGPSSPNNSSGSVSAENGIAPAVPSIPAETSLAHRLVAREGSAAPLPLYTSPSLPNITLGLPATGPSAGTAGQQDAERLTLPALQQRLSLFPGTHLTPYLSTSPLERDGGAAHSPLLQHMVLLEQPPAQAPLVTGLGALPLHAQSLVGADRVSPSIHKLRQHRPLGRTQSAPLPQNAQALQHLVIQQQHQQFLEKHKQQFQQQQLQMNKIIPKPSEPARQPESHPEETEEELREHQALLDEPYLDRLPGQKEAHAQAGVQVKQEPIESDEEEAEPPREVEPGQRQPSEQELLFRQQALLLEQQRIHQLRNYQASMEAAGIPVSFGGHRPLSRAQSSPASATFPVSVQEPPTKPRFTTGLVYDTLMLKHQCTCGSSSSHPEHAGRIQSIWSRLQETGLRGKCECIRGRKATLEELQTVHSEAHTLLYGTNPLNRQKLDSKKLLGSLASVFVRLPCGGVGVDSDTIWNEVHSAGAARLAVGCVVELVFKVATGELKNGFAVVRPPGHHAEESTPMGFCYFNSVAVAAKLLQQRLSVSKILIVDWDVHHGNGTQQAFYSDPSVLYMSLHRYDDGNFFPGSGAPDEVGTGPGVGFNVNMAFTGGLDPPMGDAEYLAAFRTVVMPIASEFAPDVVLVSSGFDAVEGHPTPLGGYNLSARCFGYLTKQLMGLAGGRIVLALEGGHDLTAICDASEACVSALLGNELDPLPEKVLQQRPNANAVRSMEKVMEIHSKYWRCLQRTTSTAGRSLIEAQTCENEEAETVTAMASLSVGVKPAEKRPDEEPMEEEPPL
Protocol: as §3, §4

[7] = target: T3, human HDAC1 (Homo sapiens, UniProt Q13547); assay: In vitro HDAC inhibition activity, [3H]-acetylated histone substrate, HDAC1; assay type: biochemical
T3 construct: FLAG; made in house; host or cells: 293T cells (transient transfection, anti-FLAG immunoprecipitation, FLAG peptide elution)
T3 sequence (Q13547 whole entry): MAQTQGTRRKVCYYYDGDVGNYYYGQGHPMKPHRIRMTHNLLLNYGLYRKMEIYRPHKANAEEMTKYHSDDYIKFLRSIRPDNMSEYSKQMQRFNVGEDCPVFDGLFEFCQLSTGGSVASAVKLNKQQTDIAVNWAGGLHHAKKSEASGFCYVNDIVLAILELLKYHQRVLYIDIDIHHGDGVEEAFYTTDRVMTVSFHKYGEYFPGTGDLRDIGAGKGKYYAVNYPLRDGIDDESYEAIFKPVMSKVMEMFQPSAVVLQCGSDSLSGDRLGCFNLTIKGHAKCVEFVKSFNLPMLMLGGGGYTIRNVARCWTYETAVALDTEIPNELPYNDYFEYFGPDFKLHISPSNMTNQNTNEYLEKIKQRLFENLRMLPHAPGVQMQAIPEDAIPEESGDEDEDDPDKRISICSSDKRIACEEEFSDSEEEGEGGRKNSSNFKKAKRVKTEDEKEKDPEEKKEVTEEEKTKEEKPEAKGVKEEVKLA
Protocol: as §3, §4

[8] = test system: human wild-type p21 promoter; assay: p21 promoter-inducing activity (luciferase) in MFLL-9 cells; assay type: cell-based
Protocol: The HDAC inhibition activity in vivo was measured using p21 promoter-inducing activity as an index, as shown below. The MFLL-9 cells employed for the experiments stably maintained fusion genes of human wild-type p21 promoter and luciferase (Dr. B. Vogelstaein). Using phenol red-free DMEM medium comprising 10% FBS, cultivation was carried out in a steam-saturated incubator at 37° C. with 5% carbon dioxide. The MFLL-9 cells were plated at a density of 85,000 cells/well on a 96-well microtiter plate, each in 99 μl of the above-mentioned medium. These were then cultivated for six hours. One μl of test compound solution was added to each well, which was then cultured for another 18 hours.
The intensity of luminescence caused by the product of the enzyme reaction for intracellular luciferase expression was measured using Luc Lite (Packard BioScience Company). A group in which test compounds were not added was used as a negative control group. The values measured for this group were used as a standard. The activities for each concentration of added test compound were expressed relative to the above-mentioned standard value, 1.

[9] = from H-dTyr(Me)-Ile-dPro-Ab6-OH, 9.7 mM
[10] = Table 1, X = H (coexisting with DTT)

CC[C@H](C)[C@@H]1NC(=O)[C@@H](Cc2ccc(OC)cc2)NC(=O)[C@H](CCCCOn2nnc3cccnc32)NC(=O)[C@H]2CCCN2C1=O [cyclo(-L-Ab6-D-Tyr(Me)-L-Ile-D-Pro-)]
ring closure, isolated yield [1, 9]: 23%

CC[C@H](C)[C@@H]1NC(=O)[C@@H](Cc2ccc(OC)cc2)NC(=O)[C@H](CCCCOn2nnc3cccnc32)NC(=O)[C@H]2CCCN2C1=O [cyclo(-L-A(OAt)6-D-Tyr(Me)-L-Ile-D-Pro-)]
ring closure, isolated yield [1, 9]: 27%

CC[C@H](C)[C@@H]1NC(=O)[C@@H](Cc2ccc(OC)cc2)NC(=O)[C@H](CCCCCBr)NC(=O)[C@@H]2CCCN2C1=O [cyclo(-L-Ab7-D-Tyr(Me)-L-Ile-L-Pro-)]
ring closure, isolated yield ([1]; from H-dTyr(Me)-Ile-Pro-Ab7-OH, 1.02 mM): 21%

CC[C@H](C)[C@@H]1NC(=O)[C@@H](Cc2ccc(OC)cc2)NC(=O)[C@H](CCCCCBr)NC(=O)[C@@H]2CCCCN2C1=O [cyclo(-L-Ab7-D-Tyr(Me)-L-Ile-L-Pip-)]
ring closure, isolated yield ([1]; from H-dTyr(Me)-Ile-Pip-Ab7-OH?, 2.0 mM): 61%

CC[C@H](C)[C@@H]1NC(=O)[C@@H](Cc2ccc(OC)cc2)NC(=O)[C@H](CCCCCBr)NC(=O)[C@H]2CCCCN2C1=O [cyclo(-L-Ab7-D-Tyr(Me)-L-Ile-D-Pip-)]
ring closure, isolated yield ([1]; from H-dTyr(Me)-Ile-dPip-Ab7-OH?, 2.0 mM): 39%

CC[C@H](C)[C@@H]1NC(=O)[C@@H](Cc2ccc(OC)cc2)NC(=O)[C@H](CCCCCCBr)NC(=O)[C@H]2CCCN2C1=O [cyclo(-L-Ab8-D-Tyr(Me)-L-Ile-D-Pro-)]
ring closure, isolated yield ([1]; from H-Ab8-dTyr(Me)-Ile-dPro-OH, 10.0 mM): 55%

CC[C@H](C)[C@@H]1NC(=O)[C@@H](Cc2ccc(OC)cc2)NC(=O)[C@H](CCCCCSSC)NC(=O)[C@H]2CCCN2C1=O [SCOP 405, cyclo(-L-Am7(SMe)-D-Tyr(Me)-L-Ile-D-Pro-)]
LD50 (nM) HeLa [2]: 179 nM
selectivity ratio at 48 h ([3]; LD50 for normal cells/LD50 for cancer cells (TIG-3/HeLa), without DTT): 44.1
CC50 at 48 h ([4]; 48 hours, free-LDH ratio 50%, without DTT, read-out: LD50 (nM) TIG-3): 7900 nM
IC50 ([5]; Table 3, hybrid, without DTT): 191 nM
IC50 ([6]; Table 3, hybrid, without DTT): 405 nM
IC50 ([7]; Table 3, hybrid, without DTT): 119 nM
EC50 ([8]; Table 3, hybrid, without DTT): 3260 nM

CC[C@H](C)[C@@H]1NC(=O)[C@@H](Cc2ccc(OC)cc2)NC(=O)[C@H](CCCCCBr)NC(=O)[C@H]2CCCN2C1=O [H-Ab7-dTyr(Me)-Ile-dPro-OH]
ring closure, isolated yield ([1]; from H-Ab7-dTyr(Me)-Ile-dPro-OH, 10.2 mM): 64%

CC[C@H](C)[C@@H]1NC(=O)[C@@H](Cc2ccc(OC)cc2)NC(=O)[C@H](CCCCCS)NC(=O)[C@H]2CCCN2C1=O [SCOP 152] (cyclo([Gly((CH2)5SH)][dY](Me)I[dP]))
LD50 (nM) HeLa [2]: 370 nM
selectivity ratio at 48 h [3]: 18.3
CC50 at 48 h ([4]; LD50 (nM) TIG-3): 6780 nM
IC50 [5, 10]: 1400 nM
IC50 [6, 10]: 2.06 nM
IC50 [7, 10]: 4.6 nM
EC50 ([8]; Table 1, X = H (coexisting with DTT), 50% of maximum active value for TSA): 309 nM
EC50 ([8]; Table 5, purified SCOP 152 under DTT-free conditions): 3510 nM

CC[C@H](C)[C@@H]1NC(=O)[C@@H](Cc2ccc(OC)cc2)NC(=O)[C@H](CCCCCCCBr)NC(=O)[C@H]2CCCN2C1=O [cyclo(-L-Ab9-D-Tyr(Me)-L-Ile-D-Pro-)]
ring closure, isolated yield ([1]; from H-Ab9-dTyr(Me)-Ile-dPro-OH, 9.4 mM): 61%
